MIC and kcat/Km ratio data for seven compounds are collected here from ChEMBL document CHEMBL1255351, “Biochemical characterization of metallo-beta-lactamase VIM-11 from a Pseudomonas aeruginosa clinical strain” (2008).

For assay [1], the system named is Escherichia coli. As to the kind of experiment: Antimicrobial activity Escherichia coli DH5alpha expressing metallo-beta-lactamase VIM-11 by agar macrodilution method. Format: functional.
Assay [2] relates to Escherichia coli. Briefly: Antimicrobial activity Escherichia coli DH5alpha expressing beta lactamase VIM-2 by agar macrodilution method. Format: functional.
In the next assay the test system is Pseudomonas aeruginosa. As to the kind of experiment: Ratio of Kcat to Km for Pseudomonas aeruginosa COL-1 metallo-beta lactamase VIM-2 over Kcat to Km for Pseudomonas aeruginosa M5109 metallo-beta-lactamase VIM-11.
For assay [3], the system named is Escherichia coli. Briefly: Antimicrobial activity Escherichia coli DH5alpha harboring bacteriophage T4 plasmid alpha omega by agar macrodilution method. Format: functional.

Values after ≈ are worked out from the molar mass of the structure shown.

On to `CO/N=C(\C(=O)N[C@@H]1C(=O)N2C(C(=O)[O-])=C(C[N+]3(C)CCCC3)CS[C@H]12)c1csc(N)n1`, for which the MIC against Escherichia coli [1] and with Escherichia coli [2] was 0.5 µg/mL (≈ 1.04 µM) each time. Further, the kcat/Km ratio with Pseudomonas aeruginosa was determined as 2.9.
`O=C(Cc1cccs1)N[C@@H]1C(=O)N2C(C(=O)O)=C(/C=C/c3ccc([N+](=O)[O-])cc3[N+](=O)[O-])CS[C@H]12`: the kcat/Km ratio in the assay with Pseudomonas aeruginosa was determined as 1.06.
For `CC1(C)S[C@@H]2[C@H](NC(=O)[C@H](N)c3ccccc3)C(=O)N2[C@H]1C(=O)O` [AMPICILLIN], the values for the MIC with Escherichia coli [1], in the assay with Escherichia coli [2] and in the assay with Escherichia coli [3] were 64 µg/mL (≈ 183 µM), 256 µg/mL (≈ 733 µM) and 8 µg/mL (≈ 22.9 µM), respectively. For the same compound, in the assay on Pseudomonas aeruginosa, the kcat/Km ratio was determined as 0.81.
Take `C[C@H]1[C@H](NC(=O)/C(=N\OC(C)(C)C(=O)O)c2csc(N)n2)C(=O)N1S(=O)(=O)O` [AZTREONAM]: the MIC with Escherichia coli [1] and with Escherichia coli [2] was 0.5 µg/mL (≈ 1.15 µM) each time.
In the case of `CO/N=C(\C(=O)N[C@@H]1C(=O)N2C(C(=O)O)=C(COC(C)=O)CS[C@H]12)c1csc(N)n1` [CEFOTAXIME], the MIC against Escherichia coli [1] came out at 4 µg/mL (≈ 8.78 µM); in the assay on Escherichia coli [2] it was 8 µg/mL (≈ 17.6 µM); in the assay on Escherichia coli [3], 0.03 µg/mL (≈ 0.0659 µM). Besides, the kcat/Km ratio in the assay on Pseudomonas aeruginosa came to 0.78.
For `CO[C@@]1(NC(=O)Cc2cccs2)C(=O)N2C(C(=O)O)=C(COC(N)=O)CS[C@@H]21` [CEFOXITIN] the same measures were 32 µg/mL (≈ 74.9 µM), 64 µg/mL (≈ 150 µM), 4 µg/mL (≈ 9.36 µM) and 0.86.
For `CO/N=C(\C(=O)N[C@@H]1C(=O)N2C(C(=O)[O-])=C(C[n+]3cccc4c3CCC4)CS[C@H]12)c1csc(N)n1` [CEFPIROME] the same measures were 0.5 µg/mL (≈ 0.972 µM), 0.25 µg/mL (≈ 0.486 µM), 0.015 µg/mL (≈ 0.0291 µM) and 2.
